Experimental data from patent publication US20250188075A1, “SUBSTITUTED HETEROCYCLIC CSNK1 INHIBITORS” (The Broad Institute, Inc., priority 2022, published 2025).

Key:
[1] = Solubility assay (thermodynamic solubility); format: physicochemical; details: aqueous buffer, 24 h
Protocol: Solubility of solid compound in aqueous buffer was determined by an equilibrium shake flask method. A saturated solution of drug in solvent (˜2 mg/ml solvent) was prepared and the solution was mixed for 24 h to ensure that equilibrium has been reached. The solution was centrifuged to remove the insoluble fraction and the concentration of the compound in solution was determined by HPLC-UV using a standard calibration curve (Kerns, E. H. et al., Solubility Methods in: Drug-like Properties: Concepts, Structure Design and Methods, p 276-286. Burlington, MA: Academic Press 2008).

[2] = molecular target: human Ether-a-go-go-Related Gene (hERG) potassium channel (Homo sapiens (Human), UniProt Q12809); test: hERG inhibition assay, automated voltage clamp; format: cell-based; details: HEK293 cells stably expressing hERG alpha subunit
Protocol: Following harvest, cells were transferred to the cell reservoir of a 384 channel automated patch clamp device and stored there at 20° C. until usage.
Upon start of the automated voltage clamp procedure, hERG cells were transferred to a 384 well patch clamp chip (pipette resistance of ˜[…] (2) prefilled with external solution (containing in mM: 143 NaCl, 4 KCl, 2 CaCl2), 1 MgCl2, 5 glucose, 10 HEPES; pH 7.4 (NaOH)). Underpressure was applied underneath the glass bottom of the patch clamp chip to position the hERG cells on the recording sites in the glass bottom of the chip. Following successful cell catch, underpressure was stopped and a seal enhancing solution (containing in mM: 78 NaCl, 60 NMDG, 4 KCl, 10 CaCl2), 1 MgCl2, 5 glucose, 10 HEPES; pH 7.4 (HCl)) was added to the hERG cells to facilitate the formation of stable seals between the membranes of the hERG cells and the glass next to the recording sites. Then, hERG cells were washed several times with wash solution (containing in mM: 87 NaCl, 60 NMDG, 4 KCl, 2 CaCl2), 1 MgCl2, 5 glucose, 10 HEPES; pH 7.4 (HCl)) to remove excess seal enhancing solution. In the meantime, the membrane parts of the hERG cells covering the recording sites were exposed to internal solution (containing in mM: 10 NaCl, 123 KF, 10 EGTA, 10 HEPES; pH 7.2 (KOH)) supplemented with 5-20 μM Escin, and the perforated patch configuration was established. Next, the holding potential was stepwise adjusted to −80 mV, capacitance was compensated, and a series of defined voltage commands was initiated to trigger the hERG current response from the hERG cells (−80 mV for 200 ms, +20 mV for 1000 ms, −40 mV for 500 ms; repeated at a frequency of 0.1 Hz). To determine whether the test item inhibits hERG, different solutions were sequentially applied to the hERG cells: First, a negative control (i.e. wash solution supplemented with 0.3% DMSO and 0.01% HSA) was applied for at least 3 min to investigate the basic electrophysiological properties of the hERG cells as well as define their standard current response. Next, a solution containing the test item at a final concentration of (0.1, 1, or 10) μM was applied for 10 min to measure eventual inhibitory effects of the test item on the hERG current (—the test item solution was produced from a 10 mM DMSO stock by using an automated pipetting device and sequential dilution). Finally, a positive control (i.e. wash solution supplemented with 0.3% DMSO, 0.01% HSA, and 10 μM quinidine) was added to the cells for ˜3 min to block the hERG current and, thereby, define the maximum inhibition. For data analysis, experimental results were processed using the automated patch clamp device-specific software as well as a custom-made software, and TIBCO Spotfire. For each successful recording, hERG tail current amplitudes were averaged from three consecutive current responses at the end of the negative control phase, test item phase, and positive control phase, respectively. Resulting mean hERG tail current amplitudes were normalized to the mean hERG tail current amplitude at the end of the negative control phase with nominal 0% inhibition as well as the hERG tail current amplitude at the end of the positive control phase with nominal 100% inhibition. Then, the effect of the test item was calculated as a percentage inhibition value at the test item concentration applied. Finally, percentage inhibition values from all successful recordings at a particular test item concentration were averaged and combined to construct a standard sigmoidal dose response curve, determine the half maximal inhibitory concentration (IC50) of the test item as well as extrapolate its IC20.

human Ether-a-go-go-Related Gene (hERG) potassium channel, sequence (Q12809 whole entry): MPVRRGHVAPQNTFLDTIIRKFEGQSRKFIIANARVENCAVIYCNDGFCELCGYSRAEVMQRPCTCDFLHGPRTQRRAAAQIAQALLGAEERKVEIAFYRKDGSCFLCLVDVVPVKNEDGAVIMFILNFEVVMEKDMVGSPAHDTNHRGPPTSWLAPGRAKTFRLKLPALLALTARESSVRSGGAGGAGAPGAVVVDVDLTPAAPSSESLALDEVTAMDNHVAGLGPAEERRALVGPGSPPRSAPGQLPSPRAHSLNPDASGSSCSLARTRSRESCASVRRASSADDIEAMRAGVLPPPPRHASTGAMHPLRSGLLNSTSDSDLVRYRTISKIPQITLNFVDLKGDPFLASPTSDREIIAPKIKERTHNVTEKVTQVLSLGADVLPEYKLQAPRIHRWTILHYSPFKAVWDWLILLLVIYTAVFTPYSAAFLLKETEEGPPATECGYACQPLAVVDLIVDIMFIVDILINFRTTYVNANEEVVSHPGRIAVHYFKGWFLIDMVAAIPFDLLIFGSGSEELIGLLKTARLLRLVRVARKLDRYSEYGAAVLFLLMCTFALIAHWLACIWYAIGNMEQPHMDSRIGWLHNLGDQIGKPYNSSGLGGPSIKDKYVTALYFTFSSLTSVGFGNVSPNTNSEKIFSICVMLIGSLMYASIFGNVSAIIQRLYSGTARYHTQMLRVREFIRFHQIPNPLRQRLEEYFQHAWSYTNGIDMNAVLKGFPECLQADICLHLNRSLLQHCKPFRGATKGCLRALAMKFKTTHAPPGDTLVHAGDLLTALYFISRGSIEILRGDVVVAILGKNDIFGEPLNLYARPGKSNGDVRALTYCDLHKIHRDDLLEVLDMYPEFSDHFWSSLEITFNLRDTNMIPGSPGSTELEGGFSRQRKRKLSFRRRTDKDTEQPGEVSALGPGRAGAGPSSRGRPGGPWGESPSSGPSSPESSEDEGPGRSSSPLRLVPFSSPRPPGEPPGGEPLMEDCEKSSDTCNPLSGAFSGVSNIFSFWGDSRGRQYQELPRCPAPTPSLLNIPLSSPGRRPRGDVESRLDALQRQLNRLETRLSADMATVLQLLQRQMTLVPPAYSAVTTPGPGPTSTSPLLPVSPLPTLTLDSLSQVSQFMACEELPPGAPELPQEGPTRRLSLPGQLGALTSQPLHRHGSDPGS

Thermodynamic Solubility [mg/l] (mean) [1]: 2.35 mg/L
SMILES: O=C(Cc1ccc(F)cc1)Nc1cc(-c2[nH]c3ccc(F)nc3c2-c2ccccn2)ccn1 [Example C4, reference compound]
IC50 [2]: 1.16 µM
